# Reference: PMC10707468, “Pharmacokinetics of Novel Dopamine Transporter Inhibitor CE-123 and Modafinil with a Focus on Central Nervous System Distribution” (International Journal of Molecular Sciences, 2023)
# Legend:
# CYP2D6 = biological target: T1, CYP2D6 (Homo sapiens, UniProt P10635); experiment: CYP P450 inhibition in HLMs (Eurofins Panlabs); assay type: in vitro ADME; settings: microsomes, S-CE-123 10 µM, range given for CYP2C9, CYP1A and CYP2D6 together, read-out: inhibition of control values
# T1 construct: from tissue; host or cells: human liver microsomes (HLMs)
# Description: (§1) In vitro metabolism assays for the cytochrome (CYP) P450 inhibition of S-CE-123 was outsourced to Eurofins Panlabs (St. Charles, MO, USA, study number 100050638). Briefly, 0.1 mg/mL of the HLMs was incubated for 10 min at 37 °C with substrate (10 µM phenacetin for CYP1A, 100 µM bupropion for CYP2B6, 10 µM amodiaquine for CYP2C8, 10 µM diclofenac for CYP2C9, 0.5 µM omeprazole for CYP2C19, 5 µM dextromethorphan for CYP2D6, 5 µM midazolam for CYP3A, and 50 µM testosterone for CYP3A4) in the presence/absence of S-CE-123 (10 µM). The peak areas corresponding to the metabolite of each substrate were recorded. The percent of control activity was then calculated by comparing the peak area obtained in the presence of the test compound to that obtained in the absence of the test compound. Subsequently, the percent inhibition was calculated by subtracting the percent control activity from 100 for each compound. The IC50 values (concentration causing a half-maximal inhibition of control values) were determined using non-linear regression analysis of the concentration–response curve using Hill equation curve fitting.
# CYP1A = biological target: T2, CYP1A (Homo sapiens, UniProt P05177); experiment: CYP P450 inhibition in HLMs (Eurofins Panlabs); assay type: in vitro ADME; settings: microsomes, S-CE-123 10 µM, range given for CYP2C9, CYP1A and CYP2D6 together, read-out: inhibition of control values
# T2 construct: from tissue; host or cells: human liver microsomes (HLMs)
# T2 sequence (P05177 2-516 limits assumed): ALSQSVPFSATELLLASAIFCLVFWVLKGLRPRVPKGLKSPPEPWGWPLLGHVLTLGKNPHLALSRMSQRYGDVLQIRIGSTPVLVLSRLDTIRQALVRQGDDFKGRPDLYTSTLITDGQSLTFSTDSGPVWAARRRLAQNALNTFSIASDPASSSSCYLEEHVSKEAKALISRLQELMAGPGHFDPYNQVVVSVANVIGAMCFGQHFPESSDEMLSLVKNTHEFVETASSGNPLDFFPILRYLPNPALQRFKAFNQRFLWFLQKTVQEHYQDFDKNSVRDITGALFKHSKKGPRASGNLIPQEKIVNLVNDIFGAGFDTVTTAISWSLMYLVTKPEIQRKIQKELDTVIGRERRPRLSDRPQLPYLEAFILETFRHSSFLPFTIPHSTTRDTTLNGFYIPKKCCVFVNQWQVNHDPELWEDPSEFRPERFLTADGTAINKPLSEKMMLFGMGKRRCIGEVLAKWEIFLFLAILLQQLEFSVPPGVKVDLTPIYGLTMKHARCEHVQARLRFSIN
# Description: as §1
# CYP2B6 = biological target: T3, CYP2B6 (Homo sapiens, UniProt P20813); experiment: CYP P450 inhibition in HLMs (Eurofins Panlabs); assay type: in vitro ADME; settings: S-CE-123 10 µM
# T3 construct: from tissue; host or cells: human liver microsomes (HLMs)
# T3 sequence (P20813 1-491): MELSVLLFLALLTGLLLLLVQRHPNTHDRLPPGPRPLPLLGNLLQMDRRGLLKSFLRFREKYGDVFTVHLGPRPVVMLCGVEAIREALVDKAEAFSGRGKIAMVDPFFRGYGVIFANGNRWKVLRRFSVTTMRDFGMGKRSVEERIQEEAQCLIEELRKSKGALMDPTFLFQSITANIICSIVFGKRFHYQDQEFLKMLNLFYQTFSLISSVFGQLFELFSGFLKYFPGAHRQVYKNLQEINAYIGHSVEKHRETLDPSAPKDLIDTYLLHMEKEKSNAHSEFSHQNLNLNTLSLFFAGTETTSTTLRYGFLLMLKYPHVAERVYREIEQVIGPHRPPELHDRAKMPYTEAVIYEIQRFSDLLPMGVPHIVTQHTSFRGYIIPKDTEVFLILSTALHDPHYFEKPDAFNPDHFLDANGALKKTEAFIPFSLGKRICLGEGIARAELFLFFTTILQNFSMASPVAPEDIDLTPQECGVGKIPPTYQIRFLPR
# Description: as §1
# [1] = Equilibrium dialysis, plasma protein binding; assay type: in vitro ADME, rat; settings: for free (unbound) in plasma / Fraction unbound in plasma, fu,plasma: rat plasma; for Fraction unbound in plasma, fu,plasma / fraction unbound at 5 h, 10 µM: 10 µM, 5 h, 37 °C, plasma with 10% DMF; for fraction unbound at 5 h, 10 µM: rat, undiluted rat plasma containing 10% DMF, pH 7.4, rat plasma, read-out: Fraction unbound in plasma, fu,plasma
# Description: (§2) A Teflon 96-well plate (model HTD96b, HTDialysis LLC, Gales Ferry, CT, USA) was used in all tissue-binding experiments. Th evaluation of PPB was determined according to van Liempd et al. (2011) and BTB according to the previously published protocols. […] The whole brain tissue from three rats was individually homogenized in 9 volumes of phosphate-buffered saline (PBS), pH 7.4. […] Then, 100 µL of spiked plasma or brain tissue homogenate in triplicate was dialyzed against an equal volume of PBS, pH 7.4, for 5 h at 37 °C and 200 rpm. Furthermore, 50 µL was taken from both sides of the membrane at the end of incubation. The unbound fraction of the compounds in the plasma (fu,plasma) or in the diluted (D) brain homogenate (fu,hD) was calculated according to the following equation:(1) fu,plasma or fu,hD=Cbuffer/Ctissue where Cbuffer represents the concentration of the compound measured in the buffer and Ctissue is the concentration measured in the plasma or brain tissue homogenate. Due to dilution, fu,hD is usually higher than the actual fu,brain. Thus, fu,hD was corrected for the dilution factor (D), which is in this case 10 times. (2) fu,brain=fu,hD/D+fu,hD−D·fu,hD
# [2] = Equilibrium dialysis, brain tissue binding; assay type: in vitro ADME, rat; settings: for fraction unbound at 5 h, 10 µM: whole brain homogenate (1:9 in PBS), rat brain homogenate 1:9 in PBS pH 7.4, 10 µM, corrected for dilution, read-out: Fraction unbound in brain homogenate, fu,brain
# Description: as §2
# [3] = test system: human isoforms of the DAT; set-up: method as in PMID 29230168; settings: HEK293 cells; cited from earlier work
# CYP2C9 = CYP2C9 (Homo sapiens, UniProt P11712); experiment: CYP P450 inhibition in HLMs (Eurofins Panlabs); assay type: in vitro ADME; set-up: from tissue; host or cells: human liver microsomes (HLMs); settings: microsomes, S-CE-123 10 µM, range given for CYP2C9, CYP1A and CYP2D6 together, read-out: inhibition of control values
# Description: as §1
# CYP2C19 = CYP2C19 (Homo sapiens, UniProt P33261); experiment: CYP P450 inhibition in HLMs (Eurofins Panlabs); assay type: in vitro ADME; set-up: from tissue; host or cells: human liver microsomes (HLMs); settings: S-CE-123 10 µM
# Description: as §1
# SERT = test system: SERT; set-up: method as in PMID 29410048; settings: cited from earlier work
# CYP3A = experiment: CYP P450 inhibition in HLMs (Eurofins Panlabs); assay type: in vitro ADME, human; settings: S-CE-123 10 µM
# Description: as §1
# human DAT = settings: cell lines expressing human DAT; read-out: Inhibitory constant, Ki; cited from earlier work
# CYP2C19, sequence (P33261 whole entry): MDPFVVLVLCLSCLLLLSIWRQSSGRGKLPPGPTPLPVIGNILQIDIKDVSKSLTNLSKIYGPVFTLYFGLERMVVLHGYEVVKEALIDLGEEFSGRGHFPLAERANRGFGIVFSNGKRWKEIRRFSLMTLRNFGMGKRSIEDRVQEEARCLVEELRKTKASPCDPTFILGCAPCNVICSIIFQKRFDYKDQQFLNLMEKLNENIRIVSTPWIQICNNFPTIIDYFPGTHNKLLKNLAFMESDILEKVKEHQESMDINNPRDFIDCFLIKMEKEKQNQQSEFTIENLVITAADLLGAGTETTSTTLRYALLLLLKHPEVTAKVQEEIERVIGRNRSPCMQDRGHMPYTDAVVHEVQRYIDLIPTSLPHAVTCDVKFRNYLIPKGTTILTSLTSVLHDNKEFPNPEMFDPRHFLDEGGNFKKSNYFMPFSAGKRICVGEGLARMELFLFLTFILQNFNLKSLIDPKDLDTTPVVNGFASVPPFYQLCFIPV
# T1 sequence (P10635 whole entry): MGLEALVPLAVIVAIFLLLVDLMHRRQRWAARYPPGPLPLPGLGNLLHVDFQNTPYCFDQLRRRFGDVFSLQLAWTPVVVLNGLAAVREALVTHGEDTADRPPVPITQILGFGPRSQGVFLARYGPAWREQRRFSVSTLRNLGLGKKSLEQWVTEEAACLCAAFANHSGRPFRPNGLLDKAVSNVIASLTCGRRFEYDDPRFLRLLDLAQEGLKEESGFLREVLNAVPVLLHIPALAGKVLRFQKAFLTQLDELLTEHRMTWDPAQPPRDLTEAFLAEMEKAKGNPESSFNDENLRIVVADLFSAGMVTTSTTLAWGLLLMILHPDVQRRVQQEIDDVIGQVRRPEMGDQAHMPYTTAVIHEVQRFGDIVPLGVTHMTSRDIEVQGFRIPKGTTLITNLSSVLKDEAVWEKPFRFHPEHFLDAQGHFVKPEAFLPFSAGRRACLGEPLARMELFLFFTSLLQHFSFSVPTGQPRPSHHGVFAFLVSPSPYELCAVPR
# CYP2C9, sequence (P11712 whole entry): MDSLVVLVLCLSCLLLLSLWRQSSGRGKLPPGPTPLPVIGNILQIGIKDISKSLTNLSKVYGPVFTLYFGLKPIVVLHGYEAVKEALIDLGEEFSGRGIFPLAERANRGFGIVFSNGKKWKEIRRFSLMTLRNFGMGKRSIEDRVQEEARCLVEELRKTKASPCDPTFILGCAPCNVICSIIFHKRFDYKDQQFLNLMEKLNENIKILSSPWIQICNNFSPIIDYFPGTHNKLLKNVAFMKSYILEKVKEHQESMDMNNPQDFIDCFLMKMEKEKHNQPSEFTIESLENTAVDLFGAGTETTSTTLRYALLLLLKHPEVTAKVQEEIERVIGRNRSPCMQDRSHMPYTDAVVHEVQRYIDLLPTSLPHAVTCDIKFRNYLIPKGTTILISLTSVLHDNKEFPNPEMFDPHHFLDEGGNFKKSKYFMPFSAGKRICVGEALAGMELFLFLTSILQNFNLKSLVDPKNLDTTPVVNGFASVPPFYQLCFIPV
Structure (SMILES),"inhibition at 10 min, 10 µM (CYP2D6) [%]","inhibition at 10 min, 10 µM (CYP1A) [%]",inhibition of control values (CYP2B6),free (unbound) in plasma [1] [%],"Fraction unbound in plasma, fu,plasma [1] [unitless]","fraction unbound at 5 h, 10 µM [1]","brain tissue binding capacity, fold higher compared to R-modafinil ([2]; rat brain homogenate) [fold]","fraction unbound at 5 h, 10 µM [2]",fold higher in vitro activity on the DAT than its R-enantiomer [3] [fold],"inhibition at 10 min, 10 µM (CYP2C9) [%]",inhibition of control values (CYP2C19),activity on SERT (SERT),inhibition of control values (CYP3A),Ki (human DAT) [nM]
[O-][S@@+](Cc1cncs1)C(c1ccccc1)c1ccccc1 [S-CE-123],47 to 68,47 to 68,Low inhibition,25,0.252 ± 0.023,0.25,6.6,0.035 ± 0.012,~8,47 to 68,Low inhibition,negligible activity,Low inhibition,610
"NC(=O)C[S@@+]([O-])C(c1ccccc1)c1ccccc1 [R-modafinil, reference compound]",,,,80,0.797 ± 0.15,0.79,,0.23 ± 0.1,,,,,,
